Patent publication US11584754B2, “Derivatives of thailanstatin A, methods of treatment and methods of synthesis thereof” (WILLIAM MARSH RICE UNIVERSITY, priority 2016, dated 2023)
Where two headings read alike, the source gives them in different places. Non-standard residues stand in square brackets, D forms with d. Residues, ends and D or L forms follow the SMILES beside them. *: point of attachment. Dolaproine = CO[C@@H]([C@@H]1CCCN1)[C@@H](C)C(=O)O; Dil = CC[C@H](C)[C@H](NC)[C@@H](CC(=O)O)OC; X1 = C[C@@H](N*)[C@@H](O)c1ccccc1; NMeV = CN[C@H](C(=O)O)C(C)C

What was measured:
Assay type in all cases: cell-based, human
[1] = system: MES SA; assay: Cytotoxicity assay (72 hour killing assay, CellTiter-Glo), MES SA; settings: read-out: Cancer cell lines IC50 (nM) MES SA
Experimental: (§1) Cells were cultured in a T75 flask to ˜50-80% confluency and harvested with trypsin into a single cell suspension. Five hundred (500) cells per well were seeded in tissue culture plates in 50 μL/well culture media and incubated at 37° C. for 18-24 h. Compounds were diluted as 400× final desired concentrations in DMSO. Serial dilutions in DMSO were then diluted in culture media for a final DMSO concentration of 0.25% and 50 μL/well of the final dilution was added to the cells (Vf=100 μL). Upon plating and treatment, cells were returned to the incubator for an additional 72 hours. CellTiter-Glo reagent was prepared per manufacturer's instructions and added at 100 μL/well to the cultures. CellTiter-Glo allows for relative enumeration of metabolically active cells by quantifying intracellular ATP concentrations. After 5 minutes of incubation with CellTiter-Glo at ambient room temperature, 125 μL/well of the Cell Titer glo/cell lysate solution was transferred into black assay plates, which were then read in a luminometer within 30 minutes.
(§2) MES SA and MES SA/Dx cells are uterine sarcoma. MES SA Dx cell line was generated from MES SA to achieve upregulation of MDR1.

[2] = system: MES SA DX; assay: Cytotoxicity assay (72 hour killing assay, CellTiter-Glo), MES SA DX; settings: read-out: Cancer cell lines IC50 (nM) MES SA DX
Experimental: as §1, §2

[3] = system: HEK 293T; assay: Cytotoxicity assay (72 hour killing assay, CellTiter-Glo), HEK 293T; settings: read-out: Cancer cell lines IC50 (nM) HEK 293T
Experimental: as §1
293T cells are human embryonic kidney cell line.

Row | Structure (SMILES) | IC50 ([1]; Homo sapiens, MES-SA, 72 h) [nM] | IC50 ([2]; Homo sapiens, MES-SA, 72 h) [nM] | IC50 ([3]; Homo sapiens, HEK-293T, 72 h) [nM] | IC50 ([1]; 50% inhibitory concentration against cell growth, human uterine sarcoma cell line, 72 hours) [nM] | IC50 ([2]; 50% inhibitory concentration against cell growth, MES SA cell line with marked multidrug resistance, 72 hours) [nM] | IC50 ([3]; 50% inhibitory concentration against cell growth, human embryonic kidney cancer cell line, 72 hours) [nM] | IC50 ([1]; MES-SA, 50% inhibitory concentration against cell growth, human uterine sarcoma cell line, 72 hours) [nM] | IC50 ([2]; Homo sapiens, 50% inhibitory concentration against cell growth, MES SA cell line with marked multidrug resistance, 72 hours) [nM]
1 | CC(=O)O[C@@H](C)/C=C\C(=O)N[C@@H]1C[C@H](C)[C@H](C/C=C(C)/C=C/[C@H]2O[C@H](CC(=O)O)C[C@@]3(CO3)[C@@H]2O)O[C@@H]1C [Compound 1, Thailanstatin A] | 419 | > 400 | 296 |  |  |  |  | 
2 | COC(=O)C[C@@H]1C[C@@]2(CO2)[C@H](O)[C@@H](/C=C/C(C)=C/C[C@@H]2O[C@H](C)[C@H](NC(=O)/C=C\[C@H](C)OC(C)=O)C[C@@H]2C)O1 [Compound 2, Thailanstatin A methyl ester] | 0.32 | 3.6 | 0.36 |  |  |  |  | 
3 | COC(=O)C[C@@H]1C[C@@]2(CO2)[C@H](O)[C@@H](/C=C/C(C)=C/C[C@H]2O[C@H](C)[C@H](NC(=O)/C=C\[C@H](C)OC(C)=O)C=C2C)O1 [Compound 30] | > 1000 | > 1000 | > 1000 |  |  |  |  | 
4 | CC(=O)O[C@@H](C)/C=C\C(=O)N[C@@H]1C[C@H](C)[C@H](C/C=C(C)/C=C/[C@H]2O[C@H](CC(=O)NC3CC3)C[C@@]3(CO3)[C@@H]2O)O[C@@H]1C [Compound 31, (2S,3Z)-5-({(2R,3R,5S,6S)-6-[(2E,4E)-5-{(3R,4R,5R,7S)-7-[2-(Cyclopropylamino)-2-oxoethyl]-4-hydroxy-1,6-dioxaspiro[2.5]oct-5-yl}-3-methylpenta-2,4-dien-1-yl]-2,5-dimethyltetrahydro-2H-pyran-3-yl}amino)-5-oxopent-3-en-2-yl acetate] | 1.04 | 105 | 0.739 |  |  |  |  | 
5 | COC(=O)C[C@@H]1C[C@@]2(CO2)[C@H](O)[C@@H](/C=C/C(C)=C/C[C@@H]2O[C@H](C)[C@H](NC(=O)/C=C\[C@H](C)OC(C)=O)C=C2C)O1 [Compound 32] | > 1000 | > 1000 | > 1000 |  |  |  |  | 
6 | CCOC(=O)CCNC(=O)C[C@@H]1C[C@@]2(CO2)[C@H](O)[C@@H](/C=C/C(C)=C/C[C@@H]2O[C@H](C)[C@H](NC(=O)/C=C\[C@H](C)OC(C)=O)C[C@H]2C)O1 [Compound 33, Ethyl 3-({[(3R,5S,7R,8R)-7-{(1E,3E)-5-[(2S,3R,5R,6R)-5-{[(2Z,4S)-4-acetoxypent-2-enoyl]amino}-3,6-dimethyltetrahydro-2H-pyran-2-yl]-3-methylpenta-1,3-dien-1-yl}-8-hydroxy-1,6-dioxaspiro[2.5]oct-5-yl]acetyl}amino)propanoate] | 512 | > 2500 | 1480 |  |  |  |  | 
7 | COC(=O)C[C@@H]1C[C@@]2(CO2)[C@H](O)[C@@H](/C=C/C(C)=C/C[C@@H]2O[C@H](C)[C@H](NC(=O)/C=C\[C@H](C)OC(C)=O)C[C@H]2C)O1 [Compound 34, Methyl [(3R,5S,7R,8R)-7-{(1E,3E)-5-[(2S,3R,5R,6R)-5-{[(2Z,4S)-4-acetoxypent-2-enoyl]amino}-3,6-dimethyltetrahydro-2H-pyran-2-yl]-3-methylpenta-1,3-dien-1-yl}-8-hydroxy-1,6-dioxaspiro[2.5]-oct-5-yl]acetate] | 649 | > 1000 | > 1000 |  |  |  |  | 
8 | CCOC(=O)CCNC(=O)C[C@@H]1C[C@@]2(CO2)[C@H](O)[C@@H](/C=C/C(C)=C/C[C@@H]2O[C@H](C)[C@H](NC(=O)/C=C\[C@H](C)OC(C)=O)C[C@@H]2C)O1 [Compound 35, Ethyl 3-({[(3R,5S,7R,8R)-7-{(1E,3E)-5-[(2S,3S,5R,6R)-5-{[(2Z,4S)-4-acetoxypent-2-enoyl]amino}-3,6-dimethyltetrahydro-2H-pyran-2-yl]-3-methylpenta-1,3-dien-1-yl}-8-hydroxy-1,6-dioxaspiro-[2.5]oct-5-yl]acetyl}amino)propanoatee] | 6.9 | 261 | 2.2 |  |  |  |  | 
9 | COC(=O)C[C@@H]1C[C@@]2(CO2)[C@H](O)[C@@H](/C=C/C(C)=C/C[C@@H]2O[C@H](C)[C@H](NC(=O)/C=C\[C@H](C)OC(=O)N(C)C)C[C@@H]2C)O1 [Compound 36, Methyl [(3R,5S,7R,8R)-7-{(1E,3E)-5-[(2S,3S,5R,6R)-5-({(2Z,4S)-4-[(dimethylcarbamoyl)oxy]pent-2-enoyl}amino)-3,6-dimethyltetrahydro-2H-pyran-2-yl]-3-methylpenta-1,3-dien-1-yl}-8-hydroxy-1,6-dioxaspiro[2.5]oct-5-yl]acetate] | 0.92 | 1.09 | 0.08 |  |  |  |  | 
10 | COC(=O)C[C@@H]1C[C@@]2(CO2)[C@H](O)[C@@H](/C=C/C(C)=C/C[C@@H]2O[C@H](C)[C@H](NC(=O)/C=C\[C@H](C)OC(=O)N3CCCCC3)C[C@H]2C)O1 [Compound 38, (2S,3Z)-5-{[(2R,3R,5R,6S)-6-{(2E,4E)-5-[(3R,4R,5R,7S)-4-Hydroxy-7-(2-methoxy-2-oxoethyl)-1,6-dioxaspiro[2.5]oct-5-yl]-3-methylpenta-2,4-dien-1-yl}-2,5-dimethyltetrahydro-2H-pyran-3-yl]-amino}-5-oxopent-3-en-2-yl piperidine-1-carboxylate] | > 2500 | > 2500 | > 400 |  |  |  |  | 
11 | COC(=O)C[C@@H]1C[C@@]2(CO2)[C@H](O)[C@@H](/C=C/C(C)=C/C[C@@H]2O[C@H](C)[C@H](NC(=O)/C=C\[C@H](C)OC(=O)N3CCOCC3)C[C@H]2C)O1 [Compound 40] | > 2500 | > 2500 | > 400 |  |  |  |  | 
12 | COC(=O)C[C@@H]1C[C@@]2(CO2)[C@H](O)[C@@H](/C=C/C(C)=C/C[C@@H]2O[C@H](C)[C@H](NC(=O)/C=C\[C@H](C)OC(=O)N3CCCCC3)C[C@@H]2C)O1 [Compound 42] | 3.68 | 3.45 | 0.24 |  |  |  |  | 
13 | COC(=O)C[C@@H]1CC2(CC2)[C@H](O)[C@@H](/C=C/C(C)=C/C[C@@H]2O[C@H](C)[C@H](NC(=O)/C=C\[C@H](C)OC(C)=O)C[C@@H]2C)O1 [Compound 43, Methyl [(5S,7R,8S)-7-{(1E,3E)-5-[(2S,3S,5R,6R)-5-{[(2Z,4S)-4-acetoxypent-2-enoyl]amino}-3,6-di-methyltetrahydro-2H-pyran-2-yl]-3-methylpenta-1,3-dien-1-yl}-8-hydroxy-6-oxaspiro[2.5]oct-5-yl]-acetate] | > 2500 | > 2500 | 88.3 |  |  |  |  | 
14 | COC(=O)C[C@@H]1C[C@@]2(CO2)[C@H](O)[C@@H](/C=C/C(C)=C/C[C@@H]2O[C@H](C)[C@H](NC(=O)/C=C\[C@H](C)OC(=O)N3CCOCC3)C[C@@H]2C)O1 [Compound 44] | 2.66 | 3.71 | 0.15 |  |  |  |  | 
15 | COC(=O)C[C@@H]1C[C@@]2(CO2)[C@H](OC(C)=O)[C@@H](/C=C/C(C)=C/C[C@@H]2O[C@H](C)[C@H](NC(=O)/C=C\[C@H](C)OC(C)=O)C[C@@H]2C)O1 [Compound 45, Methyl [(3R,5S,7R,8R)-8-acetoxy-7-{(1E,3E)-5-[(2S,3S,5R,6R)-5-{[(2Z,4S)-4-acetoxypent-2-enoyl]-amino}-3,6-dimethyltetrahydro-2H-pyran-2-yl]-3-methylpenta-1,3-dien-1-yl}-1,6-dioxaspiro[2.5]-oct-5-yl]acetate] | 6.82 | 6.73 | 0.58 |  |  |  |  | 
16 | COC(=O)C[C@@H]1C[C@@]2(CO2)[C@H](O)[C@@H](/C=C/C(C)=C\C[C@@H]2O[C@H](C)[C@H](NC(=O)/C=C\[C@H](C)OC(C)=O)C=C2C)O1 [Compound 46] | > 1000 | > 1000 | > 1000 |  |  |  |  | 
17 | COC(=O)C[C@@H]1C[C@@]2(CO2)[C@H](O)[C@@H](/C=C/C(C)=C\C[C@@H]2O[C@H](C)[C@H](NC(=O)/C=C\[C@H](C)OC(C)=O)C[C@H]2C)O1 [Compound 47, Methyl [(3R,5S,7R,8R)-7-{(1E,3Z)-5-[(2S,3R,5R,6R)-5-{[(2Z,4S)-4-acetoxypent-2-enoyl]amino}-3,6-dimethyltetrahydro-2H-pyran-2-yl]-3-methylpenta-1,3-dien-1-yl}-8-hydroxy-1,6-dioxaspiro[2.5]-oct-5-yl]acetate] | > 1000 | > 1000 | > 1000 |  |  |  |  | 
18 | CC[C@H](C)[C@@H]([C@@H](CC(=O)N1CCC[C@H]1[C@H](OC)[C@@H](C)C(=O)N[C@H](C)[C@@H](O)c1ccccc1)OC)N(C)C(=O)[C@@H](NC(=O)[C@@H](NC)C(C)C)C(C)C [MMAE, reference compound] (H-[NMeV]V[Dil][Dolaproine]-X1) |  |  |  | 0.096 | 88.2 | 0.068 |  | 
19 | CC(=O)O[C@H]1C(=O)[C@@]2(C)[C@H]([C@H](OC(=O)c3ccccc3)[C@]3(O)C[C@H](OC(=O)[C@H](O)[C@@H](NC(=O)c4ccccc4)c4ccccc4)C(C)=C1C3(C)C)[C@]1(OC(C)=O)CO[C@@H]1C[C@@H]2O [paclitaxel, reference compound] |  |  |  |  |  |  | 2.47 | > 400
